Results reported in patent US20200237864A1, “METHODS AND COMPOSITIONS FOR TREATING FIBROTIC INTERSTITIAL LUNG DISEASE” (INSERM (INSTITUT NATIONAL DE LA SANTÉ ET DE LA RECHERCHE …, priority 2017, published 2020).

How the values were obtained:
[1] = tested on: G/F actin ratio in lung fibroblasts (CCD-16Lu cells); experiment: Determination of G- and F-actin levels in lung fibroblasts; type: cell-based, human
Description: Primary human normal lung fibroblasts (CCD-16Lu cells, American Type Culture Collection, Manassas, Va., USA) were grown in DMEM-Glutamax medium supplemented with 10% fetal bovine serum and penicillin/streptomycin (Thermofisher, Villebon-sur-Yvette, France), at 37° C. with 5% CO2. Experiments were performed between passages 7 and 12, when cells reached 70% confluency. Fibroblasts were treated either with 100 μM CK666 (Tocris, Lille, France) or 1/1000 dimethylsulfoxide (DMSO, Sigma,St Quentin Fallavier, France) as a control. […] For cell growth assays, 50 000 cells/well were plated in 12-well plates, grown for 4 days, detached with 5% trypsin and counted using Kova Glasstic counting slides (Thermofisher). […] Cell proteins were recovered in 100 μl lysis buffer (50 mM Tris HCl pH7.4, 150 mM NaCl, 0.1% SDS, 0.5% sodium deoxycholate, 1% Triton X-100) with 1% protease inhibitor (P8340, Sigma) and quantitated by the BiCinchoninic acid Assay (Pierce, Thermofisher); mRNA was extracted using the GeneJET RNA Purification Kit (Thermofisher).
500 000 cells were seeded in 75 cm2 flasks and treated with either CK666 or DMSO for 24 h. […] Supernatant (G-actin) and pellet (F-actin) samples were analyzed by immunoblotting on polyvinylidene fluoride membranes using a beta-actin primary antibody (Sigma).

[2] = tested on: Primary human normal lung fibroblasts (CCD-16Lu cells); experiment: Lung fibroblast cell growth assay; type: cell-based; conditions: CK666 100 μM vs DMSO, Day 4
Description: Primary human normal lung fibroblasts (CCD-16Lu cells, American Type Culture Collection, Manassas, Va., USA) were grown in DMEM-Glutamax medium supplemented with 10% fetal bovine serum and penicillin/streptomycin (Thermofisher, Villebon-sur-Yvette, France), at 37° C. with 5% CO2. Experiments were performed between passages 7 and 12, when cells reached 70% confluency. Fibroblasts were treated either with 100 μM CK666 (Tocris, Lille, France) or 1/1000 dimethylsulfoxide (DMSO, Sigma,St Quentin Fallavier, France) as a control. In a second set of experiments, fibroblasts were transfected with 4 nM of either short interfering RNAs targeting ARPC2 (siARPC2, Silencer Select, Thermofisher) or control RNAs (siControl), using the Lipofectamine RNAimax reagent (Thermofisher). For cell growth assays, 50 000 cells/well were plated in 12-well plates, grown for 4 days, detached with 5% trypsin and counted using Kova Glasstic counting slides (Thermofisher). […] Cell proteins were recovered in 100 μl lysis buffer (50 mM Tris HCl pH7.4, 150 mM NaCl, 0.1% SDS, 0.5% sodium deoxycholate, 1% Triton X-100) with 1% protease inhibitor (P8340, Sigma) and quantitated by the BiCinchoninic acid Assay (Pierce, Thermofisher); mRNA was extracted using the GeneJET RNA Purification Kit (Thermofisher).

COL1 = experiment: Spontaneous and TGFB1-induced COL1 expression in lung fibroblasts (RTPCR, ELISA); type: cell-based, human; conditions: CK666 100 μM
Description: (§1) Primary human normal lung fibroblasts (CCD-16Lu cells, American Type Culture Collection, Manassas, Va., USA) were grown in DMEM-Glutamax medium supplemented with 10% fetal bovine serum and penicillin/streptomycin (Thermofisher, Villebon-sur-Yvette, France), at 37° C. with 5% CO2. Experiments were performed between passages 7 and 12, when cells reached 70% confluency. Fibroblasts were treated either with 100 μM CK666 (Tocris, Lille, France) or 1/1000 dimethylsulfoxide (DMSO, Sigma,St Quentin Fallavier, France) as a control. In a second set of experiments, fibroblasts were transfected with 4 nM of either short interfering RNAs targeting ARPC2 (siARPC2, Silencer Select, Thermofisher) or control RNAs (siControl), using the Lipofectamine RNAimax reagent (Thermofisher). For cell growth assays, 50 000 cells/well were plated in 12-well plates, grown for 4 days, detached with 5% trypsin and counted using Kova Glasstic counting slides (Thermofisher). For differentiation assays, cells were plated in 12-well plates, grown to 70% confluency, treated for 24 h with siControl or siARPC2 when appropriate, starved of serum for 24 h, and treated with either CK666 or DMSO 30 minutes before treatment with either 5 ng/ml recombinant human TGFB1 (R&D Systems, Lille, France) of control solvent for 48h. Cell proteins were recovered in 100 μl lysis buffer (50 mM Tris HCl pH7.4, 150 mM NaCl, 0.1% SDS, 0.5% sodium deoxycholate, 1% Triton X-100) with 1% protease inhibitor (P8340, Sigma) and quantitated by the BiCinchoninic acid Assay (Pierce, Thermofisher); mRNA was extracted using the GeneJET RNA Purification Kit (Thermofisher).
Procollagen-1 (COL1) and Glyćeraldéhyde-3-phosphate déshydrogenase (GAPDH) were quantified by ELISA (DY6220 and DYC5718, R&D Systems). COL1 was expressed relative to GAPDH as an endogenous control.
(§2) RNAs were reverse-transcribed using the First Strand cDNA Synthesis Kit (Thermofisher). Transcripts were quantified by RTPCR (Sybr select Master Mix, Thermofisher) and expressed relative to UBC (human samples) or Gapdh (mouse samples) as an endogenous control using the 2^−ΔCt method.

[3] = tested on: bleomycin-induced lung fibrosis; type: in vivo, C57BL6-J mice
Description: Male, 8-week old C57BL6-J mice (Janvier, Le Genest-St-Ile, France) were treated with an orotracheal instillation of either 120 μg bleomycin (Laboratoires Bellon, France) or saline, under isoflurane anesthesia. In a first set of experiments, mice were treated from the 7th to the 14th day following instillation with daily subcutaneous injections of either 5 mg/kg of the Arp2/3 inhibitor CK666 (Tocris Biochemicals, Bristol, UK) in 100 μl of 40% Dimethylsulfoxide in saline (vehicle) (M. Park et al. 2013), or vehicle alone. Mice were monitored and weighted daily and their diet was supplemented with gel-based food (Dietgel Recovery gels, ClearH2O, Westbrook, Me., USA). On the 14th day following bleomycin, mice were anesthetized with 300 mg/kg Ketamine and 30 mg/kg xylazine, and euthanized by exsanguination. Bronchoalveolar lavage was performed with 2×1 ml saline. Lung were either snap-frozen in liquid nitrogen or inflation-fixed in 4% formaldehyde. Inhibition of the Arp2/3 complex in vivo. The study protocol was approved by the regional ethics board (APAFIS#5669-20 16061413402331).
Total insoluble collagen was quantified in left lung homogenates (Sircol Insoluble collagen Assay, Biocolor, Carrickfergus, UK). Soluble procollagen-1 was quantified in homogenates of the right upper lung lobe by ELISA (DY6220, R&D Systems). RNAs were extracted from the right middle lung lobe (Allprep, Qiagen) and reverse-transcribed (First Strand cDNA Synthesis Kit, Thermofisher). Transcripts associated with fibrogenesis were quantified by RTPCR (Sybr select Master Mix, Thermofisher) and expressed relative to Gapdh as an endogenous control. The activity of enzymes key to collagen polymerization and degradation was measured in lysates of right lower lobe using fluorimetric assays specific for lysil oxidase (Amplite™ Fluorimetric Lysyl Oxidase Assay, AAT Bioquest, Sunnyvale, Calif., USA) and collagenase (fluorimetric DQ collagen type 1, Sigma Aldrich, St Quentin-Fallavier, France). Clostridium histolyticum collagenase (Sigma-Aldrich) was used as a positive control for collagenase assays. Total BALF proteins were measured with the BCA protein assay (Thermofisher). BALF cells were counted using a hemocytometer. For histological analysis, 5-μm sections of paraffin-embedded lung were stained with Masson's trichrome stain.

ACTA2 = experiment: Spontaneous and TGFB1-induced ACTA2 expression in lung fibroblasts (RTPCR, cell-based ELISA); design: species or system human
Description: as §1
For cell-based ELISA, cells were grown in 12-well plates, fixed with 4% paraformaldehyde for 15 min, permeabilized with 0.5% Triton X-100 in PBS, blocked with 1% bovine albumin, incubated overnight at 4° C. with an ACTA2 primary antibody (A2547, dilution 1/1000, Sigma), and sequentially incubated with an anti-mouse biotinylated antibody (Vector, dilution 1/400), streptavidin-horseradish peroxidase (R&D Systems), and Tetramethylbenzidine substrate (Sigma). The reaction was stopped with […] and absorbance readings were taken at 450 nm with 570 nm as a reference wavelength. […]
as §2

[4] = bleomycin-instilled mice, CK666 vs vehicle
[5] = lung lysates, bleomycin-instilled mice, CK666 vs vehicle
[6] = mouse lungs, CK666 5 mg/kg daily day 7-14, RTPCR

With `Cc1[nH]c2ccccc2c1CCNC(=O)c1ccccc1F` [CK666] the “TGFB1-induced increase in the G/F actin ratio” value ([1]; TGFB1 5 ng/ml, CK666 100 μM or 4 nM siARPC2) was “inhibited”, the G/F actin ratio ([1]; unstimulated lung fibroblasts, CK666 100 μM vs DMSO or 4 nM siARPC2 vs siControl) was “increased” and the “reduction of cell growth (fold-increase in cell number relative to seeding)” value [2] was 36%. For the same compound, the “reduction of the TGFB1-driven increase in COL1 protein” value (COL1; TGFB1 5 ng/ml, ELISA, trend, p=0.13) was 30%, the “TGFB1-driven increase in COL1A1 mRNA” value (COL1; TGFB1 5 ng/ml, RTPCR) was “did not modulate” and the “TGFB1-driven increase in COL1A2 mRNA” value (COL1; TGFB1 5 ng/ml, RTPCR) was “did not modulate”. For the same compound, the “reduction of COL1/GAPDH protein ratio” value (COL1; unstimulated cells, ELISA) was 54%, the “expression of COL1A1 mRNA” value (COL1; unstimulated cells, RTPCR) was “did not modulate” and the “expression of COL1A2 mRNA” value (COL1; unstimulated cells, RTPCR) was “did not modulate”. The “reduction of lung content in procollagen-1” value ([3]; bleomycin-instilled mice, CK666 5 mg/kg daily day 7-14 vs vehicle, ELISA) was 55%, the “bleomycin-induced increase in BALF total protein” value [3, 4] was “reduced neither” and the bleomycin-induced weight loss [3, 4] was “reduced neither”. For the same compound, the “lung levels of LOX mRNA” value [3, 4] was “did not reduced”, the “lung levels of LOXL2 mRNA” value [3, 4] was “did not reduced” and the “lung levels of TG2 mRNA” value [3, 4] was “did not reduced”. The “bleomycin-induced increase in lung Collal mRNA” value ([3]; bleomycin-instilled mice, CK666 vs vehicle, RTPCR relative to Gapdh) was “did not reduce”, the “reduction of lung insoluble collagen” value ([3]; bleomycin-instilled mice, left lung, CK666 5 mg/kg daily day 7-14 vs vehicle, Sircol assay) was 20% and the “bleomycin-induced increase in lung lysyl oxidase activity” value [3, 5] was “not modified”. The lung collagenase activity [3, 5] was “no effect”, the “lung expression of Arp2 mRNA” value [3, 6] was “increased expression” and the “lung expression of ArpCla mRNA” value [3, 6] was “increased expression”. For the same compound, the “lung expression of Arpc3 mRNA” value [3, 6] was “increased expression”, the lung histology ([3]; mouse, in vivo) was “did not result in modifications of lung histology” and the “TGFB1-driven increase in ACTA2 mRNA” value (ACTA2; TGFB1 5 ng/ml 48 h, RTPCR) was “partially”. For the same compound, the “TGFB1-driven increase in ACTA2 protein” value (ACTA2; TGFB1 5 ng/ml 48 h, cell-based ELISA) was “totally”, the “expression of ACTA2 mRNA” value (ACTA2; unstimulated lung fibroblasts, CK666 100 μM, RTPCR) was “did not modulate” and the “expression of ACTA2 protein” value (ACTA2; unstimulated lung fibroblasts, CK666 100 μM, cell-based ELISA) was “did not modulate”.
